Test results as given in patent US12157750B2, “Bright targetable red CA2+ indicators” (HOWARD HUGHES MEDICAL INSTITUTE, priority 2019, dated 2024).
Several values for one entry are separate records, joined by “and”; a condition that tells them apart may be missing. Equal values may be shown once. Read-outs that look alike come from different tables or passages of the source.

Key:
[1] = Calcium titrations in EGTA buffer system (ΔF/F0, Kd determination); format: binding; settings: for Kd: in vitro Ca2+ binding; for ΔF/F0: Ca2+-dependent change in fluorescence over baseline
Procedure: (§1) All measurements were taken at ambient temperature (23±2° C.). […] Spectroscopy was performed using 1-cm path length quartz cuvettes (Starna). Absorption measurements were recorded on a Cary Model 100 spectrometer (Varian). Fluorescence measurements spectra were recorded on a Cary Eclipse fluorometer (Varian). Images were processed in ImageJ/Fiji. Data was analyzed and graphs were plotted using Prism (GraphPad). Movie renderings were done using Imaris (Bitplane)
(§2) Example 15: UV-Vis and Fluorescence Spectroscopy, Kd Determination. UV-Vis and fluorescence spectra were measured in a commercial EGTA buffer system (Invitrogen) following the associated protocol. […] For calcium titrations of the HaloTag ligands in the presence of HaloTag protein, the dye was incubated with 1.5 eq of purified HaloTag protein ([…] solution in 75 mM NaCl, 50 mM Tris-HCl, pH 7.4) for 1 h at room temperature. Calcium titrations were then performed using the commercial EGTA buffer system to which 0.1 mg·mL^−1 CHAPS was added. All the calcium titrations were performed in duplicate.

[2] = UV-Vis and fluorescence spectroscopy; format: physicochemical; settings: in vitro; for λmax: first value of λmax/λem; for λem: second value of λmax/λem
Procedure: as §1, §2

[3] = Quantum yield determination; format: physicochemical; settings: fluorescence quantum yield at saturating Ca2+
Procedure: Example 16: Quantum Yield Determination. Absolute quantum yields (Φ) were measured using a Quantaurus-QY spectrometer (model C11374) from Hamamatsu. This instrument uses an integrating sphere to determine photons absorbed and emitted by a sample. Measurements were carried out using dilute samples (A<0.1) and self-absorption corrections were performed using the instrument software.^27

[4] = known indicator, literature value (ref. 15); cited from earlier work
HaloTag protein = HaloTag protein (Rhodococcus rhodochrous, UniProt P0A3G2, A155T/A167V/A172T/A224E/C128F/C176G/D78G/E160K/E257K/H272N/K175M/K195N/L47V/L88M/N227D/P291S/S2A/S58T/T264A/Y273L/Y87F); assay: Calcium titrations in the presence or absence of excess HaloTag protein; format: biochemical; settings: in vitro; saturating [Ca2+]
HaloTag protein, sequence (P0A3G2 other isoform, or with tags, fused parts or gaps with the stated changes): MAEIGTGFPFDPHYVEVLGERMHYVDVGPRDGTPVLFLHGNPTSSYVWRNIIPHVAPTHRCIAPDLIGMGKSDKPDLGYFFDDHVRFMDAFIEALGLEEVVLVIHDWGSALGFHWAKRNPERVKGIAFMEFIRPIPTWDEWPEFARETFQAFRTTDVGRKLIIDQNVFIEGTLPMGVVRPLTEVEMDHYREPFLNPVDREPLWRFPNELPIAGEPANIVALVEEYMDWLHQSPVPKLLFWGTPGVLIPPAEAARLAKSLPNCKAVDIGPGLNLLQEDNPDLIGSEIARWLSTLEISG
Procedure: as §2

[5] = tested on: cultured neurons expressing NES-HaloTag-GFP; settings: cells expressing NES-HaloTag-GFP; same imaging conditions; normalized to GFP
Procedure: Primary rat hippocampal neurons were prepared as described previously and infected with AAV viruses.^1 Stock solutions of the different calcium indicators were prepared at C=1 mM in DMSO containing 20% Pluronic F-127. Cultured neurons were incubated with the cell-permeant sensors at 37° C. for 30 min (7AM and Calcium Orange-AM) or 2 h (12AM and 13AM) before washing twice with imaging buffer containing the following: 145 mM NaCl, 2.5 mM KCl, 10 mM glucose, 10 mM HEPES, pH 7.4, 2 mM CaCl2), 1 mM MgCl2. Synaptic blockers (10 μM CNQX, 10 μM CPP, 10 μM GABAZINE, and 1 mM MCPG) were added to block ionotropic glutamate, GABA, and metabotropic glutamate receptors.^21 Each measurement was performed on 3 to 5 wells replicates.
Wide-field imaging was performed on an inverted Nikon Eclipse Ti2 microscope equipped with a SPECTRA X light engine (Lumencore), 20× objective (NA=0.75, Nikon), and imaged onto a scientific CMOS camera (Hamamatsu ORCA-Flash 4.0). […]
Brightness comparison: The brightness of 12AM, jRGECO1a and jRCaMP1b in neurons were compared under the same illumination conditions. The fluorescence emission in each field of view was background subtracted and normalized by the emission of the fused EGFP to account for differences in expression levels among neurons.

[6] = tested on: Primary rat hippocampal neurons; assay: Calcium indicators characterization in primary neuron culture (evoked action potentials); format: cell-based; settings: for ΔF/F0, single AP: 1 AP
Procedure: Synaptic blockers (10 μM CNQX, 10 μM CPP, 10 μM GABAZINE, and 1 mM MCPG) were added to block ionotropic glutamate, GABA, and metabotropic glutamate receptors.^21 Each measurement was performed on 3 to 5 wells replicates.
Wide-field imaging was performed on an inverted Nikon Eclipse Ti2 microscope equipped with a SPECTRA X light engine (Lumencore), 20× objective (NA=0.75, Nikon), and imaged onto a scientific CMOS camera (Hamamatsu ORCA-Flash 4.0). […] A quad bandpass filter (set number: 89000, Chroma) was used along with the appropriate color band from the SPECTRA X light source to image 13AM.

[7] = known indicator, literature value (ref. 15); saturating Ca2+; cited from earlier work
[8] = known indicator, cited from earlier work
[9] = tested on: primary cilium in hRPE1 cells expressing 5HT6-HaloTag; settings: Ca2+ uncaging with 405 nm light
Procedure: Tet-on 5HT6-HaloTag RPE cells were plated in 8-well Labtek II chambers (Invitrogen) in 10% FBS DMEM:F12 media. The next day, the cells were serum deprived with 0% FBS DMEM:F12 medium with 100 ng/ml doxycycline to induce 5HT6-HaloTag expression. After 24 h of serum deprivation and doxycycline induction, cells were labeled with 1 μM 13AM overnight. After rinsing in DMEM:F12, the cells were loaded with 4 μM NP-EGTA, AM (ThermoFisher N6803) for 1 h. The medium was then replaced by DMEM Fluorobrite (ThermoFisher) for imaging in a 37° C., 5% CO2 chamber on an inverted Zeiss 880 with Airyscan. For each single cilium, 405 nm laser light (100%, 15 mW, 3s) uncaged free Ca^2+ from NP-EGTA in a 50-70 μm^2 area. Airyscan images were acquired at 0.5-0.8 s/stack for a total of 100 stacks (50-80 s) with 633 laser lines (13AM). Calcium uncaging was performed at the 50th stack. Change in intensity values were calculated in ImageJ using a maximum intensity projection series.

[10] = cultured hippocampal neurons loaded with AM ester

Row | Compound | Kd [1] | ΔF/F0 ([1]; in vitro) | λmax [2] | λem [2] | ϕsat [3] | other results
1 | O=C(O)CN(CC(=O)O)c1ccccc1OCCOc1cc(NC(=O)C2CC/[N+]2=c2/ccc3c(-c4ccccc4C(=O)[O-])c4ccc(N5CCC5)cc4oc-3c2)ccc1N(CC(=O)O)CC(=O)O (stereo not drawn) [Compound 6, 2″-BAPTA-JF549] | 270 nM | 27.7 | 542 nm | 566 nm | 0.45 | 
2 | Oregon Green BAPTA-1 [Compound 1] |  |  |  |  |  | Kd [4]: 170 nM; ΔF/F0 [4]: 14
3 | O=C(O)CN(CC(=O)O)c1ccccc1OCCOc1cc(NC(=O)c2ccc(C(=O)[O-])c(-c3c4ccc(=[N+]5CCC5)cc-4oc4cc(N5CCC5)ccc34)c2)ccc1N(CC(=O)O)CC(=O)O [Compound 4, 6-BAPTA-JF549] | 350 nM | 4.6 | 555 nm | 576 nm | 0.78 | improvement in ΔF/F0 compared to 3 ([1]; in vitro): 2 fold
4 | 3″-BAPTA-JF549-HaloTag ligand [Compound 12] | 130 nM | 9.5 | 553 nm | 573 nm | 0.78 | 
5 | O=C(O)CN(CC(=O)O)c1ccccc1OCCOc1cc(NC(=O)C2C[N+](=c3ccc4c(-c5ccccc5C(=O)[O-])c5ccc(N6CCC6)cc5oc-4c3)C2)ccc1N(CC(=O)O)CC(=O)O (stereo not drawn) [Compound 7, 3″-BAPTA-JF549] | 310 nM | 15.0 | 546 nm | 569 nm | 0.75 | red-shift of λex and λem relative to compound 1 [2]: 50 nm
6 | O=C(O)CN(CC(=O)O)c1ccccc1OCCOc1cc(NC(=O)C2CN(c3ccc4c(-c5ccccc5C(=O)[O-])c5ccc(=[N+]6CC(C(=O)Nc7ccc(N(CC(=O)O)CC(=O)O)c(OCCOc8ccccc8N(CC(=O)O)CC(=O)O)c7)C6)cc-5oc4c3)C2)ccc1N(CC(=O)O)CC(=O)O (stereo not drawn) [Compound 8, 3″,3″′-bisBAPTA-JF549] | 730 nM | 47.0 | 543 nm | 566 nm | 0.70 | 
7 | C[Si]1(C)c2cc(N3CCC3)ccc2C2(OC(=O)c3ccc(C(=O)NCCOCCOCCCCCCCl)cc32)c2ccc(N3CC(C(=O)Nc4ccc(N(CC(=O)O)CC(=O)O)c(OCCOc5ccccc5N(CC(=O)O)CC(=O)O)c4)C3)cc21 (stereo not drawn) [Compound 13, 3″-BAPTA-JF646-HaloTag ligand] | 280 nM | 7.8 | 646 nm | 666 nm | 0.58 | increase in fluorescence upon binding to HaloTag (HaloTag protein): 2.4 fold
8 | O=C(O)CN(CC(=O)O)c1ccccc1OCCOc1cc(NC(=O)c2ccc(-c3c4ccc(=[N+]5CCC5)cc-4oc4cc(N5CCC5)ccc34)c(C(=O)[O-])c2)ccc1N(CC(=O)O)CC(=O)O [Compound 3, 5-BAPTA-JF549] | 190 nM | 2.3 | 554 nm | 579 nm | 0.69 | 
9 | 3″-BAPTA-JF549-HaloTag ligand tetra acetoxymethyl ester [Compound 12AM] |  |  |  |  |  | baseline fluorescence, brighter than jRCaMP1b [5]: 3.6 fold; baseline fluorescence, brighter than jRGECO1a [5]: 7.8 fold
10 | 3″-BAPTA-JF549 tetra-acetoxymethyl ester [Compound 7AM] |  |  |  |  |  | saturating number of APs [6, 10]: 40 APs; ΔF/F0, single AP [6, 10]: 0.20; maximal ΔF/F0 ([6]; cultured hippocampal neurons loaded with AM ester, at saturation): 0.80; brightness compared to cells loaded with 2AM ([6]; cultured neurons): 10 ×; ΔF/F0 compared to cells loaded with 2AM ([6]; cultured neurons): 10 ×
11 | CN(C(=O)c1cccc(C(=O)O)c1-c1c2ccc(=[N+]3CCC3)cc-2oc2cc(N3CCC3)ccc12)c1ccc(N(CC(=O)O)CC(=O)O)c(OCCOc2ccccc2N(CC(=O)O)CC(=O)O)c1 [Compound 5, 7-MeBAPTA-JF549] | 570 nM | 14 | 565 nm | 583 nm | 0.18 | 
12 | Calcium Orange [Compound 2] |  |  |  |  |  | ϕsat [7]: 0.33; λem ([8]; literature value (ref. 15)): 574 nm; λmax ([8]; literature value (ref. 15)): 549 nm; excitation maxima (λex) ([8]; literature value): 549 nm; Kd [4]: 185 nM; ΔF/F0 [4]: 3
13 | O=C(O)CN(CC(=O)O)c1ccccc1OCCOc1cc(NC(=O)C2C[N+](=c3ccc4c(-c5cc(C(=O)NCCOCCOCCCCCCCl)ccc5C(=O)[O-])c5ccc(N6CCC6)cc5oc-4c3)C2)ccc1N(CC(=O)O)CC(=O)O (stereo not drawn) [Compound 12, 3″-BAPTA-JF549-HaloTag ligand] | 290 nM | 14 and 13.8 | 550 nm | 574 nm | 0.74 | 
14 | O=C(O)CN(CC(=O)O)c1ccc(NC(=O)C2CN(c3ccc4c(-c5ccccc5C(=O)O)c5ccc(=[N+]6CCC6)cc-5oc4c3)C2)cc1OCCOc1cc(NC(=O)C2C[N+](=c3ccc4c(-c5ccccc5C(=O)O)c5ccc(N6CCC6)cc5oc-4c3)C2)ccc1N(CC(=O)O)CC(=O)O (stereo not drawn) [Compound 9, 3″-BAPTA-bisJF549] |  | 75.0 | 512-549 nm | 570 nm | 0.20 | 
15 | 3″-BAPTA-JF646-HaloTag ligand tetra acetoxymethyl ester [Compound 13AM] |  |  |  |  |  | ΔF/F0, single AP ([6]; cultured hippocampal neurons expressing NES-HaloTag-GFP): 0.11; ΔF/F0 across the entire cilium [9]: 0.60
